The values that follow come from PubChem BioAssay (NCI).

Test systems include HCC-2998 colon; OVCAR-8 ovarian; HCT-15 colon; SK-OV-3 ovarian; SW-620 colon; ACHN renal; SF-539 CNS; LOX IMVI melanoma; UACC-62 melanoma; HCT-116 colon.
Common to all, as to test: NCI-60 cell line screen, 48 h

Several values for one entry are separate records, joined by “and”; a condition that tells them apart may be missing. Identical values can stand only once.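 Method: 48-hour compound exposure of cells in 96-well plates, five concentrations, linear interpolation of endpoints. Abbreviation: GI50, concentration required for 50% inhibition of growth. TGI marks complete inhibition of growth.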 Some results are limits rather than exact numbers.

Consider `CC1(C)CCC(c2ccc(Cl)cc2)=C(CN2CCN(c3ccc(C(=O)NS(=O)(=O)c4ccc(N[C@H](CCN5CCOCC5)CSc5ccccc5)c(S(=O)(=O)C(F)(F)F)c4)cc3)CC2)C1`, for which the GI50 in the test with HCC-2998 colon is 0.343 µM; with OVCAR-8 ovarian, 2.19 µM; in the test with HCT-15 colon, 2.02 µM; in the test on SK-OV-3 ovarian it was 1.28 µM; with SW-620 colon, 1.79 µM; in the test with ACHN renal, 1.72 µM. The GI50 in the test with SF-539 CNS is 2.08 µM; with LOX IMVI melanoma it was 1.4 µM; in the test on UACC-62 melanoma it was 1.43 µM; with HCT-116 colon, 1.69 µM. The TGI in the test on HCC-2998 colon was found to be 1.67 µM; in the test with OVCAR-8 ovarian it was 5.18 µM; in the test with HCT-15 colon it was 4.35 µM; in the test on SK-OV-3 ovarian it was 2.68 µM; in the test with SW-620 colon it was 3.8 µM; in the test on ACHN renal, 3.14 µM. The TGI in the test with SF-539 CNS came to 4.22 µM; with LOX IMVI melanoma it was 2.74 µM; in the test on UACC-62 melanoma, 2.92 µM; in the test on HCT-116 colon, 3.11 µM.

As to `CCN(CC)CCCC(C)Nc1ccnc2cc(OC)ccc12` (stereo not given), the GI50 was 14.7 µM in the test with HCC-2998 colon; 24.3 µM in the test on OVCAR-8 ovarian; 37.5 µM with HCT-15 colon; 24.9 µM in the test on SK-OV-3 ovarian; 23.7 µM with SW-620 colon; 39.4 µM in the test on ACHN renal. Also, the GI50 is 19 µM with SF-539 CNS, 29.5 µM with LOX IMVI melanoma, 19.5 µM in the test with UACC-62 melanoma and 29.2 µM in the test with HCT-116 colon. Also, the TGI in the test on HCC-2998 colon is 28.4 µM; in the test on OVCAR-8 ovarian, 71.1 µM; with HCT-15 colon, more than 100 µM; in the test on SK-OV-3 ovarian, 52.3 µM; in the test with SW-620 colon, 58.2 µM; in the test with ACHN renal, more than 100 µM. Also, the TGI is 34.4 µM in the test with SF-539 CNS, more than 100 µM with LOX IMVI melanoma, 37.7 µM in the test with UACC-62 melanoma and 46 µM with HCT-116 colon.

For the compound `O=C(c1ccccc1)N1CCc2c([nH]c3ccccc23)C1`, the TGI with HCC-2998 colon, in the test with OVCAR-8 ovarian, in the test on HCT-15 colon, in the test on SK-OV-3 ovarian, in the test on SW-620 colon and in the test with ACHN renal was more than 100 µM each time. Further, the TGI with SF-539 CNS, in the test on LOX IMVI melanoma, with UACC-62 melanoma and in the test with HCT-116 colon was more than 100 µM each time.

`Nc1nc(N)c2nc(CNc3ccc(C(=O)NC(CCC(=O)O)C(=O)O)cc3)cnc2n1` (stereo not given): the GI50 with HCC-2998 colon was 0.0329 µM and < 0.01 µM; in the test with OVCAR-8 ovarian, less than 0.01 µM; with HCT-15 colon, 0.0422 µM and < 0.01 µM; in the test with SK-OV-3 ovarian, 0.0755 µM and < 0.01 µM; with SW-620 colon it was less than 0.01 µM; in the test on ACHN renal, less than 0.01 µM. Besides, the GI50 is 0.0204 µM and < 0.01 µM with SF-539 CNS; less than 0.01 µM in the test on LOX IMVI melanoma; 0.0274 µM and < 0.01 µM in the test on UACC-62 melanoma; less than 0.01 µM with HCT-116 colon. Also, the TGI in the test with HCC-2998 colon, in the test on OVCAR-8 ovarian, with HCT-15 colon, with SK-OV-3 ovarian, in the test on SW-620 colon and with ACHN renal was more than 100 µM throughout. In addition, the TGI in the test on SF-539 CNS, with LOX IMVI melanoma, in the test on UACC-62 melanoma and in the test with HCT-116 colon was more than 100 µM each time.

Regarding `CCCN1CCCC(c2ccc(Nc3nc(Nc4cc(F)ccc4C(N)=O)c4cc[nH]c4n3)c(OC)c2)C1` (stereo not given), the GI50 in the test with HCC-2998 colon was 2.58 µM; in the test with OVCAR-8 ovarian, 2.47 µM; in the test on HCT-15 colon, 0.437 µM; with SK-OV-3 ovarian, 2.81 µM; in the test with SW-620 colon, 0.106 µM; in the test on ACHN renal it was 2.92 µM. Moreover, the GI50 in the test with SF-539 CNS was 2.14 µM; in the test with LOX IMVI melanoma, 0.588 µM; in the test on UACC-62 melanoma it was 3.11 µM; in the test on HCT-116 colon, 0.21 µM. The TGI in the test with HCC-2998 colon was 5.64 µM; with OVCAR-8 ovarian it was 5.92 µM; in the test with HCT-15 colon, 5.47 µM; in the test on SK-OV-3 ovarian, 5.83 µM; in the test on SW-620 colon it was 3.66 µM; with ACHN renal, 6.23 µM. Besides, the TGI came out at 6.05 µM with SF-539 CNS, 5.49 µM in the test on LOX IMVI melanoma, 6.31 µM with UACC-62 melanoma and 4.38 µM with HCT-116 colon.

For `C/C(=N\NC(N)=S)c1ccc(Oc2ccccc2)cc1`, the TGI with HCC-2998 colon was 28.7 µM; in the test on OVCAR-8 ovarian, 52.3 µM; in the test with HCT-15 colon, 22.5 µM; in the test on SK-OV-3 ovarian it was 36.3 µM; with SW-620 colon it was 53.9 µM; with ACHN renal, 42.7 µM. For the same compound, the TGI with SF-539 CNS turned out to be 17.6 µM; with LOX IMVI melanoma, 34.5 µM; in the test on UACC-62 melanoma, 28.8 µM; with HCT-116 colon, 22.6 µM.

`CC(=O)Nc1ccc(S(=O)(=O)N2C(=O)CCC2C(=O)Nc2ccccc2)cc1` (stereo not given): the GI50 is 0.645 µM in the test with HCC-2998 colon; 2.23 µM with OVCAR-8 ovarian; 0.293 µM with HCT-15 colon; 2.87 µM in the test with SK-OV-3 ovarian; 0.405 µM with SW-620 colon; 0.241 µM in the test on ACHN renal. In addition, the GI50 with SF-539 CNS is 0.542 µM; in the test with LOX IMVI melanoma it was 0.0482 µM; in the test with UACC-62 melanoma, 0.0523 µM; in the test on HCT-116 colon, 0.389 µM. The TGI is 5.62 µM in the test with HCC-2998 colon; 19 µM in the test with OVCAR-8 ovarian; 14.8 µM in the test on HCT-15 colon; 18.8 µM with SK-OV-3 ovarian; 16.7 µM in the test with SW-620 colon; 14.3 µM in the test on ACHN renal. The TGI in the test on SF-539 CNS turned out to be 4.4 µM; in the test with LOX IMVI melanoma, 13.2 µM; in the test with UACC-62 melanoma, 10.3 µM; in the test with HCT-116 colon it was 20 µM.

`CN(C)c1ccc(-c2cc(-c3cccc(NS(C)(=O)=O)c3)nc(N)c2C#N)cc1`: the GI50 was 0.0925 µM with HCC-2998 colon; 0.0515 µM in the test with OVCAR-8 ovarian; 0.0362 µM in the test on HCT-15 colon; 0.033 µM in the test with SK-OV-3 ovarian; 0.0411 µM with SW-620 colon; 0.067 µM in the test with ACHN renal. The GI50 with SF-539 CNS is 0.0279 µM; in the test on LOX IMVI melanoma, 0.0466 µM; in the test on UACC-62 melanoma it was 0.0357 µM; with HCT-116 colon it was 0.0404 µM. Besides, the TGI was 0.866 µM in the test with HCC-2998 colon; more than 87.8 µM with OVCAR-8 ovarian; 11.8 µM with HCT-15 colon; 1.74 µM with SK-OV-3 ovarian; 18.6 µM in the test with SW-620 colon; 23.3 µM in the test on ACHN renal. The TGI stood at 0.173 µM with SF-539 CNS, 13.5 µM with LOX IMVI melanoma, 19.8 µM in the test with UACC-62 melanoma and 2.19 µM with HCT-116 colon.
